Tests used:
BCR-NTRK3 BaF3 cells = target: T1, BCR-NTRK3 BaF3 cells (Homo sapiens, UniProt Q16288); test: BaF3 BCR-NTRK3 cell proliferation assay (ATPlite); format: cell-based; conditions: read-out: Inhibition of Cell Proliferation IC50, BCR/BaF3 TrkC
T1 construct: fused on or other part: P11274 (Breakpoint cluster region protein)
Experimental: (§1) Compounds are assessed in a variety of cell based assays. For example BaF3 cells engineered with any of BCR-FMS, BCR-KIT, BCR-FLT3, BCR-NTRK1, BCR-NTRK2, and BCR-NTRK3, are used in cell proliferation assays to assess inhibitory activity of Fms, Kit, Flt-3, TrkA, TrkB, and TrkC, respectively. An MV-4-11 (leukemia) cell proliferation assay is used to assess inhibitory activity in Flt-3, and SKNSH (human neuroblastoma) cell proliferation assay is used to assess efficacy of Fms/Trk inhibitors. Additional cells may be assayed similarly to assess the efficacy of Fms/Trk inhibitors, such as MiaPaCa (human pancreatic cancer) and Capan-1 (human pancreatic carcinoma) cells. Reagent and assay conditions are as follows: • BaF3 cells: • Maintained in RPMI containing 10% FBS, 1% PenStrep, 1% NEAA, and 1% L-Glutamine, supplemented with 1 mg/mL G418 and 5% WEHI-CM (or recombinant murine IL-3). • Confluent cells are split 1:50 to 1:100 every 3-4 days. • MV-4-11 cells: • Maintained in Iscove's Modified Dulbecco's Medium containing 10% FBS. • Confluent cells are split 1:4 every 3-4 days. • SKNSH cells: RPMI containing 10% FBS. On day 1, cells are counted, then centrifuged in a conical tube for 5 minutes at 1000 rpm. The supernatant is removed and cells are re-suspended as follows: • BaF3: resuspend in growth media +1 mg/mL G418 (without WEHFIL-3) to 2×10^5 cells/mL. • MV-4-11: resuspend in growth media to 5×10^5 cells/mL. • SKNSH: resuspend in growth media to 2×10^4 cells/mL. The cells are plated (50 μL, 150 μL for SKNSH cells) in each well of a 96-well dish (Corning 3610) and incubated at 37° C. in 5% CO2 overnight, cells plated to a final concentration of cells as follows: • BaF3: 10,000 cells per well. • MV-4-11: 25,000 cells per well. • SKNSH: 3,000 cells per well. On day 2, compound at a maximum concentration of 5 mM is serially diluted 1:3 for a total of 8 point titration with DMSO as a control. A 1 μL aliquot of each dilution point is added to 249 μL growth media and 50 μL is added to a well containing cells, providing 10 μM compound for the maximum concentration point. The cells are incubated for 3 days at 37° C. in 5% CO2. For SKNSH cells, a 0.75 μL aliquot of appropriate dilution in DMSO is added to 150 μL of cells. On day 5, ATPlite 1 step Luminescence Assay System (Perkin Elmer #6016739) is brought to room temperature along with the cell cultures. ATPlite is added to each well as follows: • BaF3: 25 μL per well. • MV-4-11: 40 μL per well. • SKNSH: 20 μL per well. The cells are incubated at room temperature for 10 minutes, then luminescence is read on Safire reader. The measured luminescence correlates directly with cell number, such that the reading as a function of compound concentration is used to determine the IC50 value.
(§2) It is understood that the results of these assays may vary as assay conditions are varied. Inhibition levels determined under the conditions described herein represent a relative activity for the compounds tested under the specific conditions employed. The cell based assays are likely to show variability due to the complexity of the system and the sensitivity thereof to any changes in the assay conditions. […] Results for compounds that are tested and show substantially no inhibition below the highest tested concentration are represented as “-” in the tables below. In some instances, the compounds were not tested in all of the assays, or assay results were not valid, as indicated by NA in the tables below.

BCR-FMS BaF3 cells = target: T2, BCR-FMS BaF3 cells (Homo sapiens, UniProt P07333); test: BaF3 BCR-FMS cell proliferation assay (ATPlite); format: cell-based; conditions: read-out: Inhibition of Cell Proliferation IC50, BCR/BaF3 Fms
T2 construct: fused on or other part: P11274 (Breakpoint cluster region protein)
T2 sequence (P07333 582-910): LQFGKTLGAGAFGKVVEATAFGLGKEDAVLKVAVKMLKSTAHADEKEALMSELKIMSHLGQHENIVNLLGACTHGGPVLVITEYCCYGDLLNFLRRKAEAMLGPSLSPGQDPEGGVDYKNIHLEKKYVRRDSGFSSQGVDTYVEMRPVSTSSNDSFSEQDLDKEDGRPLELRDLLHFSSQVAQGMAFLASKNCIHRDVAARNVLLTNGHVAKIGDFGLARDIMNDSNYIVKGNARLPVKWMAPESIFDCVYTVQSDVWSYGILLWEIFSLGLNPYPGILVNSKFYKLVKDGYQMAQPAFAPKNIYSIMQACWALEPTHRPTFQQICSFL
Experimental: as §1, §2

CYP2C9 = CYP2C9 (Homo sapiens, UniProt P11712); test: CYP2C9 inhibition (fluorescent substrate MFC); format: in vitro ADME; conditions: read-out: Cyp IC50 2C9
CYP2C9, sequence (P11712 whole entry): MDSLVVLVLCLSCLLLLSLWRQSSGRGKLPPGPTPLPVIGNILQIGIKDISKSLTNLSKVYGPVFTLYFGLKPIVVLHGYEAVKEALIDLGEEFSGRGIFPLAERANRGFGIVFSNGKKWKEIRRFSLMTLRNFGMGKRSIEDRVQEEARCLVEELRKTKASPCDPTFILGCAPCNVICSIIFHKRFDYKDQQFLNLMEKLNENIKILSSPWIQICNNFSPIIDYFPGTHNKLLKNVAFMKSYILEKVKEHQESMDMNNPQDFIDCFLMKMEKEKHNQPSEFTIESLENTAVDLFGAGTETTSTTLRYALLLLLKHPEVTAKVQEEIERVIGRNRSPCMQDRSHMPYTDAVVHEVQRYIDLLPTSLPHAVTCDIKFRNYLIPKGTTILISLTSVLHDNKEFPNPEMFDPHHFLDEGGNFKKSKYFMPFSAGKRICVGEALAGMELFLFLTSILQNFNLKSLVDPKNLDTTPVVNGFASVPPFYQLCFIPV
Experimental: CYP (Cytochrome P450) enzymes are the major drug metabolizing enzymes present in the liver. The inhibition of CYP enzyme activity (IC50) for each of CYP1A2, CYP2C19, CYP2C9, CYP2D6, CYP3A4(BFC) and CYP3A4(BQ) is determined for compounds, where inhibition of metabolism of a known substrate leads to a decrease in the fluorescence of the metabolized product. The fluorescence of the product is monitored as a function of compound concentration. Compounds are dissolved in DMSO to a concentration of 100 mM. These are diluted 1 μL into 82 μL of acetonitrile. An 11 μL aliquot of this solution is then added to 204 μL of cofactor mix (1.3% NADPH Regeneration system Solution A, 1.04% NADPH Regeneration system Solution B from BD Biosciences, 5% acetonitrile and 0.05% DMSO). These are then serially diluted 1:1 (160 μL to 160 μL co-factor mix) for a total of 10 points. A 10 μL aliquot of this final mixture is dispensed into 384 well assay plates and incubated for 10 minutes at 37° C. […] Assay plates are incubated at 37° C. (CYP1A2-15 min; CYP2C9-45 min; CYP2C19, 2D6 and 3A4-30 min) and read in a Tecan Safire 2 plate reader (CYP1A2, 2C19 and 3A4 409 ex/460 em; CYP2C9 and 2D6 409 ex/530 em). The signal versus compound concentration is used to determine the IC50. The enzymes and substrates for this assay are obtained from BD Biosciences.

T1 sequence (Q16288 whole entry, the tested form may be a part): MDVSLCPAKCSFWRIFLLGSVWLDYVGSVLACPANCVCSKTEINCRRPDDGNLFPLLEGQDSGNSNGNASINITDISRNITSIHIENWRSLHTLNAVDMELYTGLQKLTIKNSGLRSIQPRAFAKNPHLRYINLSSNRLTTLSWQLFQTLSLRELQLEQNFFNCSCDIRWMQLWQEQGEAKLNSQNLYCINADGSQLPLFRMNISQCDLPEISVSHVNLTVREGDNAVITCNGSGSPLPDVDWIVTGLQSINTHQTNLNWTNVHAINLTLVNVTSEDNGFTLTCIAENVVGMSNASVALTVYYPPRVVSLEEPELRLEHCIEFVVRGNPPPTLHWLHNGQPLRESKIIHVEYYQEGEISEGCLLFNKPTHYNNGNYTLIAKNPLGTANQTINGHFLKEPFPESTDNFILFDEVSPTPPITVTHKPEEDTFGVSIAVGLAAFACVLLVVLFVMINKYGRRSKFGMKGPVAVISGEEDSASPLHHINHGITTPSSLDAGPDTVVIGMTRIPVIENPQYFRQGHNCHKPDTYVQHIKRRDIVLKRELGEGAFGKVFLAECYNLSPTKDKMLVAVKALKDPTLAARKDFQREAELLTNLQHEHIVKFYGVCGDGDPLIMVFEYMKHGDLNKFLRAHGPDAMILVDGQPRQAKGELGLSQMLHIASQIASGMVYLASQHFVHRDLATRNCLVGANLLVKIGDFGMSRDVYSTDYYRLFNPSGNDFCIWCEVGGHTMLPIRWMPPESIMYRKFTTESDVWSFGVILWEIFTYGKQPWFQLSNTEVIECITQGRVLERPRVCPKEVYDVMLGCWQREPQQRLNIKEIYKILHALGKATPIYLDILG

Structure (SMILES)	IC50 (BCR-NTRK3 BaF3 cells) [nM]	IC50 (BCR-FMS BaF3 cells) [nM]	IC50 (CYP2C9) [nM]
COc1ccc(Nc2ccc(C(=O)c3c[nH]c4ncnc(N5CCOCC5)c34)c(F)n2)cn1 [Compound P-4070, [2-fluoro-6-[(6-methoxy-3-pyridyl)amino]-3-pyridyl]-(4-morpholino-7H-pyrrolo[2,3-d]pyrimidin-5-yl)methanone]	> 1000	> 1000	> 10000
COc1cncc(Nc2ccc(C(=O)c3c[nH]c4ncnc(NC5CCCCC5)c34)c(F)n2)c1 [Compound P-4104, [4-(cyclohexylamino)-7H-pyrrolo[2,3-d]pyrimidin-5-yl]-[2-fluoro-6-[(5-methoxy-3-pyridyl)amino]-3-pyridyl]methanone]	< 100	< 100	> 10000
Fc1cc(Cc2c[nH]c3ncnc(NC4CC4)c23)cnc1NC1CCC(F)(F)CC1 [Compound P-4127, N-cyclopropyl-5-[[6-[(4,4-difluorocyclohexyl)amino]-5-fluoro-3-pyridyl]methyl]-7H-pyrrolo[2,3-d]pyrimidin-4-amine]	< 100	< 10	> 10000
COc1cncc(Nc2ccc(C(=O)c3c[nH]c4ncnc(NCC(F)(F)F)c34)c(F)n2)c1 [Compound P-4103, [2-fluoro-6-[(5-methoxy-3-pyridyl)amino]-3-pyridyl]-[4-(2,2,2-trifluoroethylamino)-7H-pyrrolo[2,3-d]pyrimidin-5-yl]methanone]	> 1000	< 100	> 10000
CC1CCC(Nc2ncc(Cc3c[nH]c4ncc(Cl)cc34)cn2)CC1 (stereo not drawn) [Compound P-3009, [5-(5-Chloro-1H-pyrrolo[2,3-b]pyridin-3-ylmethyl)-pyrimidin-2-yl]-(4-methyl-cyclohexyl)-amine]	> 10000	< 1000	> 10000
CCc1ccc(Nc2ccc(C(=O)c3c[nH]c4ncnc(NC(C)C)c34)c(F)n2)cn1 [Compound P-4117, [6-[(6-ethyl-3-pyridyl)amino]-2-fluoro-3-pyridyl]-[4-(isopropylamino)-7H-pyrrolo[2,3-d]pyrimidin-5-yl]methanone]	< 10	< 10	5000 to 10000
COc1ccc(Nc2ccc(C(=O)c3c[nH]c4ncnc(NC(C)(C)C)c34)c(F)n2)cn1 [Compound P-4055, [4-(tert-butylamino)-7H-pyrrolo[2,3-d]pyrimidin-5-yl]-[2-fluoro-6-[(6-methoxy-3-pyridyl)amino]-3-pyridyl]methanone]	< 10	< 1000	> 10000

The next lines start with the values.

IC50 (BCR-NTRK3 BaF3 cells) [nM]	IC50 (BCR-FMS BaF3 cells) [nM]	IC50 (CYP2C9) [nM]	Structure (SMILES)
< 10	< 10	> 10000	CCCNc1ncnc2[nH]cc(C(=O)c3ccc(Nc4ccc(OC)nc4)nc3F)c12 [Compound P-4068, [2-fluoro-6-[(6-methoxy-3-pyridyl)amino]-3-pyridyl]-[4-(propylamino)-7H-pyrrolo[2,3-d]pyrimidin-5-yl]methanone]
< 10	< 100	> 10000	CNc1ncnc2[nH]cc(C(=O)c3ccc(NC4CCC(F)(F)CC4)nc3F)c12 [Compound P-4063, [6-[(4,4-difluorocyclohexyl)amino]-2-fluoro-3-pyridyl]-[4-(methylamino)-7H-pyrrolo[2,3-d]pyrimidin-5-yl]methanone]
< 10	< 100	> 10000	CNc1ncnc2[nH]cc(C(=O)c3ccc(Nc4ccc(OC)nc4)nc3F)c12 [Compound P-4083, [2-fluoro-6-[(6-methoxy-3-pyridyl)amino]-3-pyridyl]-[4-(methylamino)-7H-pyrrolo[2,3-d]pyrimidin-5-yl]methanone]
< 10	< 100	> 10000	O=C(c1ccc(NC2CCC(F)(F)CC2)nc1F)c1c[nH]c2ncnc(NCC(F)(F)F)c12 [Compound P-4061, [6-[(4,4-difluorocyclohexyl)amino]-2-fluoro-3-pyridyl]-[4-(2,2,2-trifluoroethylamino)-7H-pyrrolo[2,3-d]pyrimidin-5-yl]methanone]
< 10	< 100	> 10000	CCc1ccc(Nc2ccc(C(=O)c3c[nH]c4ncnc(N)c34)c(F)n2)cn1 [Compound P-4065, (4-amino-7H-pyrrolo[2,3-d]pyrimidin-5-yl)-[6-[(6-ethyl-3-pyridyl)amino]-2-fluoro-3-pyridyl]methanone]
< 10	< 10	> 10000	CCC(C)Nc1ncnc2[nH]cc(C(=O)c3ccc(Nc4ccc(OC)nc4)nc3F)c12 (stereo not drawn) [Compound P-4078, [2-fluoro-6-[(6-methoxy-3-pyridyl)amino]-3-pyridyl]-[4-(sec-butylamino)-7H-pyrrolo[2,3-d]pyrimidin-5-yl]methanone]
< 10	< 10	> 10000	COc1ccc(Nc2ccc(C(=O)c3c[nH]c4ncnc(NC5CCCC5)c34)c(F)n2)cn1 [Compound P-4075, [4-(cyclopentylamino)-7H-pyrrolo[2,3-d]pyrimidin-5-yl]-[2-fluoro-6-[(6-methoxy-3-pyridyl)amino]-3-pyridyl]methanone]
< 10	< 100	> 10000	COCCCNc1ncnc2[nH]cc(C(=O)c3ccc(Nc4ccc(OC)nc4)nc3F)c12 [Compound P-4079, [2-fluoro-6-[(6-methoxy-3-pyridyl)amino]-3-pyridyl]-[4-(3-methoxypropylamino)-7H-pyrrolo[2,3-d]pyrimidin-5-yl]methanone]
< 10	< 100	< 5000	Cc1ccc(Nc2ccc(C(=O)c3c[nH]c4ncnc(NCC(F)(F)F)c34)c(F)n2)cn1 [Compound P-4112, [2-fluoro-6-[(6-methyl-3-pyridyl)amino]-3-pyridyl]-[4-(2,2,2-trifluoroethylamino)-7H-pyrrolo[2,3-d]pyrimidin-5-yl]methanone]

Source: patent US8901118B2, “Compounds and methods for kinase modulation, and indications therefor” (Plexxikon Inc., priority 2010, dated 2014)
